Test results reported in patent publication US11680948B2 (ABREOS BIOSCIENCES, INC., priority 2016, dated 2023).
Where two headings read alike, the source gives them in different places. Blank lines part the entries; values can stand above or below the substance they belong to.

Key:
natalizumab [1] = assay: Binding of purified phage clones to natalizumab-coated wells; details: individually amplified and purified phage clones
Description: Mimetope peptides were selected from phage display libraries, some of which contain cysteines flanking the peptide mimetope sequence to increase stability of the peptide through disulfide bond formation. After three rounds of selection with multiple phage display libraries, individual phage plaques were isolated and sequenced.
All of these unique phage clones were individually amplified and purified, and their ability to specifically bind natalizumab-coated wells was assessed. […] Selected peptides derived from validated phage clones were chemically synthesized with an N-terminal acetyl modification (in some cases), C-terminal biotin modification via a terminal lysine (all peptides), and a disulfide bridge between cysteines 2 and 10 or cysteines 8 and 16 by a contract peptide manufacturer, as shown in Table 2.

natalizumab [2] = details: human serum spiked with natalizumab, rituximab, atezolizumab, pembrolizumab, eculizumab
Description: Synthesized peptides were validated for specificity by using them as ELISA capture reagents on neutravidin-coated plates. Briefly, biotinylated peptides were coated on the wells at 100 ug/mL concentration in either tris buffered saline buffer (TBS) or water. […] Antibody that was captured by the peptides was subsequently detected using a goat anti-human IgG-Fc conjugated to horseradish peroxidase (HRP) combined with a colorimetric substrate. […] The percent of recovery was calculated as follow: calibrated concentration/nominal concentration×100.

natalizumab [3] = assay: Anti-idiotype ELISA versus VERITOPE ELISA on heat-inactivated natalizumab; format: binding; details: natalizumab heat-inactivated at 60° C.
natalizumab [4] = details: 1,000 or 10,000 fold molar excess of peptide; Jeko-1 cells
Source text: (§1) Jeko-1 cells, expressing CD49d, were used as a model.
as §1

natalizumab [5] = assay: Competition ELISA between natalizumab-specific VERITOPE and anti-idiotype; format: binding; details: capture reagent versus competitive reagent
Source text: In FIG. 11A natalizumab-specific VERITOPE™ is the capture reagent and anti-idiotype is the competitive reagent. In FIG. 11B, anti-idiotype is the capture reagent and natalizumab-specific VERITOPE™ is the competitive reagent.
FIGS. 10A and B illustrates a comparison of VERITOPE™ (FIG. 10A) and anti-idiotype (FIG. 10B) ELISA binding.

[6] = tested on: Jeko-1 cells, expressing CD49d; assay: Flow cytometry: binding of heat-inactivated natalizumab to Jeko-1 cells; format: cell-based; details: 60° C. for various periods of time; bivalent and arm-exchanged (bispecific) natalizumab
Fc gamma receptors = details: like other IgG4 antibodies; cited from earlier work
integrin = molecular target: T1, integrin (Homo sapiens, UniProt P13612); details: at the end of 4 weeks, cited from earlier work
T1 construct: host or cells: cells of treated patients

complement = details: in vitro; cited from earlier work

Substance: ACPKNPSKFCGGG{Lys(Biotin)} with Cys2-Cys10 bridge [NTZ-07-Bio]
selectivity for natalizumab over other therapeutic monoclonal antibodies (natalizumab [2]): selectively captures natalizumab in presence of other circulating human IgG

Substance: ACPMNESKFCGGG [SEQ ID NO: 1]
specific binding to natalizumab-coated wells (natalizumab [1]): specific binding to natalizumab

Substance: Ac-ACPMNESKFCGGG{Lys(Biotin)} with Cys2-Cys10 bridge [NTZ-01-Bio]
ability of capture reagent to distinguish active and inactive drug (natalizumab [3]): selectively distinguishes & quantifies active drug | inhibition of natalizumab binding to its cell surface target (natalizumab [4]): can inhibit binding of natalizumab to its cell surface target | region of natalizumab bound (natalizumab [5]): bind to the same region of natalizumab, most likely the antigen binding site

Substance: natalizumab
effect of heat-inactivation on binding to cellular target [6]: alters natalizumab binding to its cellular target | binding to Fc gamma receptors (Fc gamma receptors): reduced binding to Fc gamma receptors | integrin saturation by natalizumab (integrin; Hyams et al. 2007, crohn disease in adolescents): less than 40% | integrin saturation by natalizumab (integrin; Miller et al. 2003, relapsing multiple sclerosis): 80% | ability to fix complement (complement): lack of ability to fix complement

Results, then the substance that gave them:

specific binding to natalizumab-coated wells (natalizumab [1]): specific binding to natalizumab
Substance: ACPKNPNKFCGGG [SEQ ID NO: 4]

specific binding to natalizumab-coated wells (natalizumab [1]): specific binding to natalizumab
Substance: ACPSNPSKFCGGG [SEQ ID NO: 2]

specific binding to natalizumab-coated wells (natalizumab [1]): specific binding to natalizumab
Substance: IYAAYPPCPQNLSKFCRHSSSPGGGG [SEQ ID NO: 16]

specific binding to natalizumab-coated wells (natalizumab [1]): specific binding to natalizumab
Substance: QTLNHSWLHTFIGGG [SEQ ID NO: 13]
